Measured values as given in PubChem BioAssay AID1963852 (Molecular Pharmacology Branch, DTP, NCI, 2024).
“And” between values parts separate entries of the source, which are not always exact repeats. Equal entries are not always repeated.

Tested on: 282377-053-R-J1-PDC complex spheroid viability
Assay: Anticancer human tumor 282377-053-R-J1-PDC patient-derived colon adenocarcinoma cell line growth inhibition [POLQ]
Conditions: for viability, T/C: stronger effect = lower value
Procedure: Multicellular complex tumor spheroid response to Polymerase (POL) inhibitors (novobiocin, ART-558, RP6685) in combination with a variety of drugs and investigational agents in selected tumor cell lines
The POL inhibitors (novobiocin, ART-558, and RP6685) were evaluated both individually and in combination with standard of care and investigational anticancer small molecules within a complex spheroid model of solid tumors. . Complex spheroids include a stromal component modeled by human endothelial cells (HUVEC) and fibroblasts modeled by human mesenchymal stem cells (MSCs). The concentration ranges selected for each drug and investigational agent were based upon clinically achievable concentrations if the clinical Cmax of the agent was known.
Compounds. The drugs and investigational agents: novobiocin (NSC847541), ART-558 (NSC835418), RP-6685 (NSC848927), peposertib (NSC802822), ceralasertib (NSC780249), elimusertib (NSC800525), camonsertib (NSC841442), AZD-1390 (NSC803789), olaparib (NSC753686), talazoparib (NSC767125), rucaparib (NSC756644), sotorasib (NSC818433), MRTX-1133 (NSC836407), SN-38 (NSC673596), topotecan (NSC609699), epotoside (NSC141540), doxorubicin (NSC123127), gemcitabine (NSC613327), 5-fluorouracil (NSC19893), paclitaxel (NSC125973), vemurafenib (NSC761431), MSA-2 (NSC828583), SN-011 (NSC837082), adavosertib (NSC754352), prexasertib (NSC758257), carboplatin (NSC241240) and oxaliplatin (NSC266046), were obtained from the National Cancer Institute (NCI) Developmental Therapeutics Program Chemical Repository (21). The FDA-approved anticancer drug set is available from the Developmental Therapeutics Program at https://dtp.cancer.gov/organization/dscb/obtaining/. […] The stock solutions were prepared in dimethyl sulfoxide (DMSO, Sigma-Aldrich, St. Louis, MO, cat. D2650), except for the platinum compounds which were prepared in saline (Quality Biological, Gaithersburg, MD, cat. 114-055-101), at 800-fold the tested concentration and stored at -70 degrees C prior to their use. All drugs and investigational agents were tested over a range starting from a high concentration at or near the clinical Cmax and decreasing in half-log increments. If the clinical Cmax for an agent had not been determined, the highest concentration tested was 10 microM, except for SN-38, which was tested at a high concentration of 1 microM.
Cell Culture. All cells were maintained in an incubator at 37 degrees C and 5% CO2 with 95% humidity. The PDC lines were cultured according to standard operating procedures established by the NCI PDMR (https://pdmr.cancer.gov). Table 3 of the manuscript, lists the cell lines along with the number of the three cell types plated to form the mct-spheroids and media for tumor cell growth. After thawing, all PDC lines, except 997537-175-T-J1-PDC and 415267-285-R-J2-PDC, were cultured in Matrigel-coated flasks prepared with a working solution of 1X Ham's F-12 nutrient mix, without supplementation (Thermo Fisher Scientific, cat. 11765054), 100 U/mL penicillin-streptomycin (Thermo Fisher Scientific, cat. 15140122), and 2.5% Matrigel (Corning Inc., Corning, NY, cat. 354248) for the first three passages. The two PDC lines 997537-175-T-J1-PDC and 415267-285-R-J2-PDC were cultured on uncoated flasks. The 857933-349-R-J2-PDC line was cultured in 6C/Colon 1B media containing advanced DMEM/F-12 (Thermo Fisher Scientific, cat. 12634028), 10 mM HEPES (Thermo Fisher Scientific, cat. 15630080), 1X GlutaMAX supplement (Thermo Fisher Scientific, cat. 35050061), 0.1 mg/mL primocin (InvivoGen, San Diego, CA, cat. ant-pm-2), 10% defined fetal bovine serum, heat inactivated (HyClone Laboratories Inc., Logan, UT, cat. SH30070.03HI), 50% L-WRN conditioned media (ATCC, cat. CRL-3276), 1.25 mM N-Acetyl-L-cysteine (Sigma-Aldrich, cat. A9165), 10 mM nicotinamide (Sigma-Aldrich, cat. N0636), 1X B-27 supplement (Thermo Fisher Scientific, cat. 17504044), 1X N-2 supplement (Thermo Fisher Scientific, cat. […]

[1] = curve of first compound, second compound 0.0316 µM
[2] = curve of first compound, second compound 0.1 µM
[3] = curve of first compound, second compound 0.316 µM
[4] = curve of first compound, second compound 1 µM
[5] = curve of first compound, second compound 3.16 µM
[6] = curve of first compound, second compound 10 µM
[7] = second compound 0.0316 µM, first compound 0.0316 µM
[8] = second compound 0.0316 µM, first compound 0.1 µM
[9] = second compound 0.0316 µM, first compound 0.316 µM
[10] = second compound 0.0316 µM, first compound 1 µM
[11] = second compound 0.0316 µM, first compound 3.16 µM
[12] = second compound 0.0316 µM, first compound 10 µM
[13] = second compound 0.1 µM, first compound 0.0316 µM
[14] = second compound 0.1 µM, first compound 0.1 µM
[15] = second compound 0.1 µM, first compound 0.316 µM
[16] = second compound 0.1 µM, first compound 1 µM
[17] = second compound 0.1 µM, first compound 3.16 µM
[18] = second compound 0.1 µM, first compound 10 µM
[19] = second compound 0.316 µM, first compound 0.0316 µM
[20] = second compound 0.316 µM, first compound 0.1 µM
[21] = second compound 0.316 µM, first compound 0.316 µM
[22] = second compound 0.316 µM, first compound 1 µM
[23] = second compound 0.316 µM, first compound 3.16 µM
[24] = second compound 0.316 µM, first compound 10 µM
[25] = second compound 1 µM, first compound 0.0316 µM
[26] = second compound 1 µM, first compound 0.1 µM
[27] = second compound 1 µM, first compound 0.316 µM
[28] = second compound 1 µM, first compound 1 µM
[29] = second compound 1 µM, first compound 3.16 µM
[30] = second compound 1 µM, first compound 10 µM
[31] = second compound 3.16 µM, first compound 0.0316 µM
[32] = second compound 3.16 µM, first compound 0.1 µM
[33] = second compound 3.16 µM, first compound 0.316 µM
[34] = second compound 3.16 µM, first compound 1 µM
[35] = second compound 3.16 µM, first compound 3.16 µM
[36] = second compound 3.16 µM, first compound 10 µM
[37] = second compound 10 µM, first compound 0.0316 µM
[38] = second compound 10 µM, first compound 0.1 µM
[39] = second compound 10 µM, first compound 0.316 µM
[40] = second compound 10 µM, first compound 1 µM
[41] = second compound 10 µM, first compound 3.16 µM
[42] = second compound 10 µM, first compound 10 µM
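Note: spheroids exposed to compounds for seven days.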
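Throughout, for viability, T/C: 100% = DMSO vehicle control viability.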

CCc1cc2c(N3CCc4c(cc(Cn5ccnc5)cc4-c4cn(C)nc4C(F)(F)F)C3=O)cc(C)nc2c(OC)n1 + Nc1ccc(C#CCN(C(=O)Cc2ncc(C(F)(F)F)cc2C(F)(F)F)c2ccc(F)cc2)nn1
IC50 [1]: > 10 µM
IC50 [2]: > 10 µM
IC50 [3]: > 10 µM
IC50 [4]: > 10 µM
IC50 [5]: > 10 µM
IC50 [6]: > 10 µM
viability, T/C [7]: 83%
viability, T/C [8]: 81.5%
viability, T/C [9]: 89%
viability, T/C [10]: 98.2%
viability, T/C [11]: 120%
viability, T/C [12]: 99.3%
viability, T/C [13]: 84.8%
viability, T/C [14]: 82.8%
viability, T/C [15]: 82.3%
viability, T/C [16]: 75.1%
viability, T/C [17]: 93.4%
viability, T/C [18]: 115%
viability, T/C [19]: 96.6%
viability, T/C [20]: 86.2%
viability, T/C [21]: 89.4%
viability, T/C [22]: 82.3%
viability, T/C [23]: 95.9%
viability, T/C [24]: 96.1%
viability, T/C [25]: 82.1%
viability, T/C [26]: 88.7%
viability, T/C [27]: 79.8%
viability, T/C [28]: 96%
viability, T/C [29]: 96.7%
viability, T/C [30]: 107%
viability, T/C [31]: 95.6%
viability, T/C [32]: 91.3%
viability, T/C [33]: 85%
viability, T/C [34]: 106%
viability, T/C [35]: 90.5%
viability, T/C [36]: 108%
viability, T/C [37]: 108%
viability, T/C [38]: 102%
viability, T/C [39]: 125%
viability, T/C [40]: 107%
viability, T/C [41]: 113%
viability, T/C [42]: 115%

CCCS(=O)(=O)Nc1ccc(F)c(C(=O)c2c[nH]c3ncc(-c4ccc(Cl)cc4)cc23)c1F + COC1C(OC(N)=O)C(O)C(Oc2ccc3c(O)c(NC(=O)c4ccc(O)c(CC=C(C)C)c4)c(=O)oc3c2C)OC1(C)C
IC50 [1]: 3.55 µM
IC50 [2]: 4.03 µM
IC50 [3]: 3.46 µM
IC50 [4]: 3.45 µM
IC50 [5]: 3.83 µM
IC50 [6]: 2.37 µM
viability, T/C [7]: 91.9%
viability, T/C [8]: 77.1%
viability, T/C [9]: 81.1%
viability, T/C [10]: 56.5%
viability, T/C [11]: 59.4%
viability, T/C [12]: 33.2%
viability, T/C [13]: 86.6%
viability, T/C [14]: 76.1%
viability, T/C [15]: 65.7%
viability, T/C [16]: 68.4%
viability, T/C [17]: 60%
viability, T/C [18]: 29.9%
viability, T/C [19]: 89.8%
viability, T/C [20]: 65.5%
viability, T/C [21]: 63.5%
viability, T/C [22]: 65.3%
viability, T/C [23]: 58.4%
viability, T/C [24]: 32.9%
viability, T/C [25]: 108%
viability, T/C [26]: 63.7%
viability, T/C [27]: 80.9%
viability, T/C [28]: 58.5%
viability, T/C [29]: 66.5%
viability, T/C [30]: 30.6%
viability, T/C [31]: 93.1%
viability, T/C [32]: 82%
viability, T/C [33]: 68.7%
viability, T/C [34]: 54.9%
viability, T/C [35]: 68.4%
viability, T/C [36]: 33.2%
viability, T/C [37]: 89.1%
viability, T/C [38]: 73.5%
viability, T/C [39]: 73.1%
viability, T/C [40]: 73.3%
viability, T/C [41]: 42.2%
viability, T/C [42]: 38%

CCc1cc2c(N3CCc4c(cc(Cn5ccnc5)cc4-c4cn(C)nc4C(F)(F)F)C3=O)ccnc2c(OC)n1
viability, T/C (compound 0.0316 µM): 128% and 102% and 81.9%
viability, T/C (compound 0.1 µM): 138% and 96.1% and 88.3%
viability, T/C (compound 0.316 µM): 140% and 95% and 77.2%
viability, T/C (compound 1 µM): 129% and 82.6% and 88.5%
viability, T/C (compound 3.16 µM): 121% and 93.2% and 89.4%
viability, T/C (compound 10 µM): 88% and 110% and 120%
IC50 (curve of compound): > 10 µM

COc1cccc2c1C(=O)c1c(O)c3c(c(O)c1C2=O)CC(O)(C(=O)CO)CC3OC1CC(N)C(O)C(C)O1 (stereo not given)
viability, T/C (compound 0.0316 µM): 98.8% and 96% and 104%
viability, T/C (compound 0.1 µM): 83.9% and 92.9% and 87.7%
viability, T/C (compound 0.316 µM): 62.9% and 125% and 50.8%
viability, T/C (compound 1 µM): 17.3% and 111% and 20.5%
viability, T/C (compound 3.16 µM): 0.93% and 18.7% and 1.37%
viability, T/C (compound 10 µM): 2.95% and 3.23% and 2.45%
IC50 (curve of compound): 0.421 µM and 2.09 µM and 0.336 µM

COc1cc2cc(C(=O)CCC(=O)O)sc2cc1OC
viability, T/C (compound 0.0316 µM): 94.6% and 86.1% and 105%
viability, T/C (compound 0.1 µM): 98.1% and 93.6% and 93.2%
viability, T/C (compound 0.316 µM): 108% and 97% and 105%
viability, T/C (compound 1 µM): 111% and 96.9% and 98.6%
viability, T/C (compound 3.16 µM): 103% and 107% and 127%
viability, T/C (compound 10 µM): 93.6% and 102% and 101%
IC50 (curve of compound): > 10 µM
